Results on 1 substance are retold here after patent publication EP1363949B1, “FUNCTIONAL FRAGMENT OF THE LEPTINE RECEPTOR” (Vlaams Interuniversitair Instituut voor Biotechnologie vzw., priority 2000, dated 2007).

The assay has as its system FLAG-tagged SOCS3. Description: phosphopeptide affinity chromatography with anti-FLAG Western blot. The format is binding, rat. The conditions noted are these: lysates of HEK293T cells transfected with pMET7-fSOCS3, biotinylated peptides on streptavidin-agarose. An excerpt: Monoclonal anti-FLAG antibody M2 was obtained from Sigma. Mouse recombinant leptin was purchased from R&D Systems. Peptides were synthesized using standard Fmoc-amino-acid solid phase chemistry on an Applied Biosystems Model 431A peptide synthesizer. Biotin was esterified manually following similar procedures as on the synthesizer, and added to the reaction mixture. Incorporation of phosphotyrosine was realized by using a protected Fmoc-tyrosine-phosphobenzylester (Novabiochem). After purification, mass of the peptides was confirmed by mass spectrometry. Sequences of the peptides used were biotin-QRQPSVK(p)Y985ATLVSNDK and biotin-NHREKSVC(p)Y1077LGVTSVNR.
Approximately 10^6 HEK293T cells were lysed in 150 µl 2x loading buffer. After sonication, 30 µl was loaded on a 10% polyacrylamide gel. […] Blotting efficiency was checked using PonceauS staining (Sigma). […] Peptide concentrations were determined by a colorimetric assay using alkaline hydrolysis and a ninhydrine reagent. […]
The interaction sites of SOCS3 with the leptin receptor were confirmed using a biochemical approach. FLAG-tagged SOCS3 was expressed upon transient transfection of pMET7-fSOCS3 in HEK293T cells, and was analyzed for binding to (phospho)-tyrosine containing peptides matching the two motifs within the leptin receptor. […]

As to “biotin-QRQPSVK(p)Y985ATLVSNDK [non-phosphorylated peptide]”, the “binding of SOCS3” value is listed as “did not bind any SOCS3 protein”.
